The record followed here is article PMC5361811, “Inhibition of human endogenous retrovirus-K by antiretroviral drugs” (Retrovirology, 2017).

The subject of this assay is T1, HERV-K protease.
T1 construct: gene pro; retroviral aspartic protease of consensus HERV-K genome (from Gag-Pro-Pol polyprotein; synthetic, plasmid pCD-HK/Rev), acting in transfected HeLa or 293 cells and virions; homodimer by homology
Nature of the assay: virus production in transfected HeLa cells, RT activity in supernatant by PERT. The format is cell-based. Conditions: Homo sapiens, read-out: HERV-K IC50 (μM). An excerpt:
virus production in transfected HeLa cells, RT activity in supernatant by PERT on HERV-K protease

By IC50 is commonly meant the concentration that inhibits the measured activity by half. Turning to `Cc1cccc(C)c1OCC(=O)N[C@@H](Cc1ccccc1)[C@@H](O)C[C@H](Cc1ccccc1)NC(=O)[C@H](C(C)C)N1CCCNC1=O` [Lopinavir], the 50% inhibitory concentration (IC50) came to 0.034 µM.

Turning to `CC(C)CN(C[C@@H](O)[C@H](Cc1ccccc1)NC(=O)O[C@H]1CO[C@H]2OCC[C@H]21)S(=O)(=O)c1ccc(N)cc1` [Darunavir], the IC50 came to 0.029 µM.
